A word on the IC50: it is the concentration at which inhibition is half-maximal. The low end stands for inhibition by little substance, the high end for a need for much substance.

Test [1] concerns the target T1, rat α-glucosidase (intestinal acetone powder from rat).
T1 construct: gene Si; supernatant of rat intestinal acetone powder (Sigma-Aldrich), crude extract; several alpha-glucosidases
The test can be described thus: p-nitrophenyl alpha-D-glucopyranoside hydrolysis, absorbance at […] nm. It is filed as biochemical. The conditions noted are these: alpha-pNPG, 0.1 M phosphate pH 6.9, 37 °C, 20 min; crude intestinal extract.

Test [2] addresses T2, human aldose reductase (HAR) (Homo sapiens, UniProt P15121).
T2 construct: gene AKR1B1; commercial enzyme from Prozomix
The test can be described thus: NADPH absorbance at […] nm. In kind it is biochemical.

Take `OC[C@H]1NC[C@H](O)[C@@H](O)[C@@H]1O` [1-Deoxynojirimycin]: the α-Glucosidase in test [1] was 0.01 ± 0.01 mg/mL.

The compound `Oc1cc(O)c2c(c1)O[C@H](c1ccc(O)c(O)c1)[C@@H](O)C2` [(+)-Catechin] showed an IC50 in test [2] of 2620 µM.

Compound `C[C@H]1O[C@H](O[C@H]2[C@H](O)[C@@H](O)[C@@H](O[C@H]3[C@H](O)[C@@H](O)C(O)O[C@@H]3CO)O[C@@H]2CO)[C@H](O)[C@@H](O)[C@@H]1N[C@H]1C=C(CO)[C@@H](O)[C@H](O)[C@H]1O` (stereo partly drawn) [Acarbose] registered a α-Glucosidase in test [1] of 0.12 ± 0.01 mg/mL.

(Values after publication PMC8037948, “Assessing the In Vitro Inhibitory Effects on Key Enzymes Linked to Type-2 Diabetes and Obesity and Protein Glycation by Phenolic Compounds of Lauraceae Plant Species Endemic to the Laurisilva Forest” (Molecules, 2021).)
